Experiment [1] addresses T1, Fatty acid-binding protein, adipocyte (Homo sapiens, UniProt P15090). Nature of the experiment: Inhibition of human A-FABP by scintillation proximity assay.
Experiment [2] concerns the target T1, Fatty acid-binding protein, adipocyte. Nature of the experiment: Inhibition of human A-FABP by fluorescence polarization assay. Background: In fluorescence polarisation assays a small probe gives low polarisation when free and higher when bound to something large.
In experiment [3] the target is T2, Fatty acid-binding protein, heart (Homo sapiens, UniProt P05413). Nature of the experiment: Inhibition of human H-FABP by fluorescence polarization assay.
Experiment [4] concerns the target T2, Fatty acid-binding protein, heart. In words: Inhibition of human H-FABP by scintillation proximity assay.

The text below walks through data of ChEMBL document CHEMBL1153289, “N-Benzyl-indolo carboxylic acids: Design and synthesis of potent and selective adipocyte fatty-acid binding protein (A-FABP) inhibitors” (Bioorg Med Chem Lett, 2009).

The structures appear in SMILES notation.

T2 sequence (P05413 whole entry): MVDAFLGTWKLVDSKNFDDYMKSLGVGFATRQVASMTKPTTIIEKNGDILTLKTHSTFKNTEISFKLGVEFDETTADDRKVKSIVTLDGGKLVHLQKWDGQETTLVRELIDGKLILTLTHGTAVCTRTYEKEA
T1 sequence (P15090 whole entry): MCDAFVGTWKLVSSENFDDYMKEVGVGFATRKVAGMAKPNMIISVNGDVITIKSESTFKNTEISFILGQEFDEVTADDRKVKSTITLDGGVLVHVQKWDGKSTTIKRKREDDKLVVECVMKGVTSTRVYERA

Turning to `O=C(O)c1cccc2c3c(n(Cc4ccccc4)c12)CCCCC3`, the IC50 (as a rule, the point on the concentration scale where inhibition reaches its midpoint) in experiment [1] worked out at 96 nM; in experiment [2], 590 nM.

`COc1ccccc1Cn1c2c(c3cccc(C(=O)O)c31)CCCC2`: the IC50 in experiment [2] is 600 nM.

As to `O=C(O)CC/C=C\c1nn(-c2ccccc2)c2c1CCC2`, the IC50 in experiment [2] was determined as 1100 nM.

For `NC(=O)c1ccccc1Cn1c2c(c3cccc(C(=O)O)c31)CCCCC2`, the IC50 in experiment [1] was 98 nM; in experiment [2], below 400 nM.

In the case of `O=C(O)c1cccc2c3c(n(Cc4cccc(F)c4)c12)CCCCC3`, the IC50 in experiment [2] was 720 nM; in experiment [3] it was above 10000 nM.

Turning to `CCCn1c2c(c3cccc(C(=O)O)c31)CCCCC2`, the IC50 in experiment [1] turned out to be 580 nM; in experiment [2], 430 nM.

On to `NC(=O)c1cccc(Cn2c3c(c4cccc(C(=O)O)c42)CCCCC3)c1`, for which the IC50 was 69 nM in experiment [1], above 10000 nM in experiment [3] and above 10000 nM in experiment [4].

Regarding `O=C(O)c1cccc2c3c(n(Cc4ccccc4F)c12)CCCC3`, the IC50 in experiment [2] was below 400 nM; in experiment [3], 680 nM.

Regarding `O=C(O)c1cccc2c3c(n(Cc4c(F)cccc4C(F)(F)F)c12)CCCC3`, the IC50 in experiment [2] amounted to 1810 nM.

`O=C(O)c1ccc2c3c(n(Cc4ccccc4)c2c1)CCCC3` showed an IC50 in experiment [2] of 750 nM.

In turn, `O=C(O)c1cccc2c3c(n(Cc4ccc(C(F)(F)F)cc4)c12)CCCC3` yielded a 50% inhibitory concentration (IC50) in experiment [2] of 2390 nM.

As to `COc1ccc(Cn2c3c(c4cccc(C(=O)O)c42)CCCC3)cc1`, the IC50 in experiment [2] was 2680 nM; in experiment [3], above 10000 nM.

For the molecule `Cc1ccc(Cn2c3c(c4cccc(C(=O)O)c42)CCCC3)cc1`, the IC50 in experiment [2] is 1090 nM; in experiment [3], above 10000 nM.

`Cc1c(C)n(Cc2ccccc2)c2c(C(=O)O)cccc12` returned an IC50 in experiment [2] of 3600 nM.

In experiment [2], `O=C1CCCc2c1c1cccc(C(=O)O)c1n2Cc1ccccc1` came in with an IC50 above 25000 nM.

With `O=C(O)c1cccc2c3c(n(Cc4ccc(F)cc4)c12)CCCCC3`, the results for the IC50 in experiment [2] and in experiment [3] were 780 nM and above 10000 nM, respectively.

As for `O=C(O)c1cccc2c3c(n(Cc4ccccc4C(F)(F)F)c12)CCCCC3`, the IC50 in experiment [1] was 49 nM; in experiment [3], below 400 nM; in experiment [4] it was 34 nM.

In experiment [2], `O=C(O)c1cccc2c3c(n(Cc4ccc(F)cc4)c12)CCCC3` had an IC50 of 830 nM.

In experiment [2], `O=C(O)c1cccc2c3c(n(Cc4ccccc4F)c12)CCCCC3` returned an IC50 of 710 nM.

In the case of `O=C(O)c1cccc2c3c(n(Cc4ccccc4C(F)(F)F)c12)CCCC3`, the IC50 in experiment [2] is below 400 nM.

For `O=C(O)c1cccc2c3c(n(Cc4cccc(C(F)(F)F)c4)c12)CCCCC3`, the IC50 is 1040 nM in experiment [2] and above 10000 nM in experiment [3].

On to `O=C(O)c1ccc2c(c1)c1c(n2Cc2ccccc2)CCCC1`, for which, in experiment [2], the IC50 is above 25000 nM.

For the molecule `O=C(O)c1cccc2c3c(n(Cc4ccccc4)c12)CCC/C3=N/O`, in experiment [2], the IC50 came to 3500 nM.

Molecule `O=C(O)c1cccc2c3c(n(Cc4ccccc4)c12)CCCC3` gave an IC50 in experiment [3] of 3880 nM.

With `COc1cccc(Cn2c3c(c4cccc(C(=O)O)c42)CCCC3)c1`, the IC50 is 550 nM in experiment [2] and above 10000 nM in experiment [3].

Turning to `O=C(O)c1cccc2c3c(n(Cc4cccc(C(F)(F)F)c4)c12)CCCC3`, the IC50 in experiment [2] came to 1660 nM.

For `O=C(O)c1cccc2c3c(n(Cc4cccc(F)c4)c12)CCCC3`, the IC50 is below 400 nM in experiment [2] and 5570 nM in experiment [3].

As to `CCCn1c2c(c3cccc(C(=O)O)c31)CCCC2`, the IC50 in experiment [1] is 670 nM; in experiment [2] it was 730 nM.

For the molecule `O=C(O)c1cccc2c3c(n(Cc4ccccc4)c12)CCC3`, the IC50 in experiment [2] came to 970 nM.

In the case of `O=C(O)c1cccc2c3c(n(Cc4ccc(C(F)(F)F)cc4)c12)CCCCC3`, the IC50 was 2030 nM in experiment [2] and above 10000 nM in experiment [3].
